Data: patent US11629331B2, “Method of differentiation of human induced pluripotent stem cell to dermal papilla precursor cell and use thereof” (SEOUL NATIONAL UNIVERSITY R & DB FOUNDATION, priority 2017, dated 2023)

Tested on: neural crest stem cells
Assay: Flow cytometry (SDC1, CD133) of differentiation of neural crest stem cells into dermal papilla precursor cells
Assay type: cell-based, human
Conditions: CHIR-99021 at 0.1 μM, 1 μM and 10 μM with bFGF and BMP4; after about 2 weeks
Excerpt: To develop a dermal papilla precursor cell medium composition for inducing differentiation of dermal papilla precursor cells from neural crest stem cells, the possibility of differentiation into dermal papilla precursor cells was examined by treatment with several factors alone known as vital materials for dermal papilla cell differentiation or a combination thereof. To confirm differentiation into dermal papilla precursor cells, mouse anti-human SDC1 and CD133/2 antibodies were stained using PBS supplemented with 2% FBS, and then the stained cells were analyzed using a flow cytometer (BD Biosciences). A DMEM/[…]) (Reference 1) (Thermo Fisher, catalog no. […] To determine the role of a GSK-3 inhibitor as a WNT signal activator in the dermal papilla precursor cell medium composition for inducing differentiation of dermal papilla precursor cells from neural crest stem cells, the possibility of differentiation into dermal papilla precursor cells was examined by treatment with not only 6-bromoindirubin-3'-oxime (BIO) but also CHIR-99021 at 0.1 μM, 1 μM, and 10 μM. To confirm the possibility of differentiation into dermal papilla precursor cells, mouse anti-human SDC1 and CD133/2 antibodies were stained using PBS supplemented with 2% FBS, and then the stained cells were analyzed using a flow cytometer (BD Biosciences). A DMEM/[…]) (Reference 1) (Thermo Fisher, catalog no. […]

Cc1c[nH]c(-c2cnc(NCCNc3ccc(C#N)cn3)nc2-c2ccc(Cl)cc2Cl)n1 [CHIR-99021] was tested, and the “differentiation efficiency into dermal papilla precursor cells (SDC1, CD133 flow cytometry)” value was “differentiation efficiency increased according to the concentration”.
